PubChem BioAssay (NCI)
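Tested at 5 concentrations; 48 h exposure; 96-well plates; endpoints linearly interpolated, else capped at highest concentration. TGI is the concentration that stops growth completely.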

Experiments:
Assay in all cases: NCI tumour cell line growth inhibition, 48 h
[1] = system: MDA-MB-435
[2] = system: K-562 leukemia
[3] = system: IGROV1 ovarian
[4] = system: HCC-2998 colon
[5] = system: RPMI-8226 leukemia
[6] = system: CAKI-1 renal
[7] = system: SK-MEL-2 melanoma
[8] = system: LOX IMVI melanoma
[9] = system: COLO 205 colon
[10] = system: A498 renal

Compound	TGI [1] [µM]	TGI [2] [µM]	TGI [3] [µM]	TGI [4] [µM]	TGI [5] [µM]	TGI [6] [µM]	TGI [7] [µM]	TGI [8] [µM]	TGI [9] [µM]	TGI [10] [µM]
O=S(=O)(c1ccc(NC2=NC(c3ccc(O)cc3)(c3ccccc3O)c3ccccc32)cc1)c1ccc(NC2=NC(c3ccc(O)cc3)(c3ccccc3O)c3ccccc32)cc1 (stereo not given)	> 24.6	> 100	22.2	15.4	> 100	59.4	22.9	> 100	> 33.6	44.8
O=C(NCCCCCCCCCCCCNC(=O)Nc1cccc2ccccc12)Nc1cccc2ccccc12	33.5	50.5	36.3	27.8	37.1	31.7	35.7	34.2	44.1	31.7
CSCSSC	> 100	> 100	> 100	> 100	> 100	> 100	> 100	> 100	> 100	> 100
CN(C)c1nc(N)nc(CS)n1	> 100	> 100	> 100	> 100	> 100	> 100	> 100	> 100	> 100	> 100
CN(C)c1ccc(/C(F)=C(F)/C(F)=C(F)/C(F)=C(\F)c2ccc(Br)cc2)cc1	10.7	> 100	> 100	> 100	> 100	> 84	> 100	> 100	63.2	> 95.5
CC(=O)NCCC1CN(C(=O)/C=C/I)c2ccccc21 (stereo not given)	18.5	> 100	18.7	29.6	> 60.5	9.03	14.8	3.25	14.1	17.5
Cc1ccc([S@](=O)c2occc2C=O)cc1	20.8	4.25	31.2	29.3	8.04	30.7	29.2	3.93	28.9	32.3
CC1C(=O)N(c2ccccc2)NC12CCCc1ccccc12 (stereo not given)	> 100	> 100	> 100	> 100	> 100	> 100	> 100	> 100	> 100	> 100
OCCO/N=C1\C(c2c(O)[nH]c3ccccc23)=Nc2ccccc21	> 100	> 100	> 100	> 100	> 100	> 100	> 100	> 100	> 100	0.875
COc1cc([C@@H]2c3cc4c(cc3[C@@H](c3c(O)cc(O)c5c3O[C@H](c3ccc(O)c(O)c3)[C@@H](O)C5)[C@H]3COC(=O)[C@H]23)OCO4)cc(OC)c1OC	3.13	78.5	> 100	3.48	59.4	3.57	3.75	> 100	51.8	2.95
N#CC1(C#N)NC(c2cccs2)C(C#N)(C#N)NC1c1cccs1 (stereo not given)	> 100	56.3	> 100	93.3	73.1	> 100	50.5	37.3	> 100	74.6
